Experimental data: the NIST ThermoML archive (doi:10.1007/s10765-009-0602-6)
Numbers after ± are expanded uncertainties.

Assay: molar heat capacity at constant volume; xn = mol fraction of the nth substance listed
Conditions: x1 = 0.2607

N [ammonia] + O
Conditions | molar heat capacity at constant volume [J/K/mol]
581.09 K, Fluid (supercritical or subcritical phases), Mass density=476.25 kg/m3, isochoric heat capacity | 67.71 ± 2.7
581.18 K, Fluid (supercritical or subcritical phases), Mass density=476.25 kg/m3, isochoric heat capacity | 67.34 ± 2.7
581.36 K, Fluid (supercritical or subcritical phases), Mass density=476.25 kg/m3, isochoric heat capacity | 66.28 ± 2.6
581.54 K, Fluid (supercritical or subcritical phases), Mass density=476.25 kg/m3, isochoric heat capacity | 66.75 ± 2.7
581.62 K, Fluid (supercritical or subcritical phases), Mass density=476.25 kg/m3, isochoric heat capacity | 66.08 ± 2.6
584.62 K, Fluid (supercritical or subcritical phases), Mass density=476.25 kg/m3, isochoric heat capacity | 65.81 ± 2.6
584.71 K, Fluid (supercritical or subcritical phases), Mass density=476.25 kg/m3, isochoric heat capacity | 65.01 ± 2.6
584.8 K, Fluid (supercritical or subcritical phases), Mass density=476.25 kg/m3, isochoric heat capacity | 64.64 ± 2.6
584.88 K, Fluid (supercritical or subcritical phases), Mass density=476.25 kg/m3, isochoric heat capacity | 65.32 ± 2.6
584.95 K, Fluid (supercritical or subcritical phases), Mass density=456.58 kg/m3, isochoric heat capacity | 82.04 ± 3.3
584.95 K, Liquid, Isochoric heat capacity | 82.04 ± 3.3
584.97 K, Fluid (supercritical or subcritical phases), Mass density=476.25 kg/m3, isochoric heat capacity | 65.26 ± 2.6
584.98 K, Fluid (supercritical or subcritical phases), Mass density=456.58 kg/m3, isochoric heat capacity | 80.98 ± 3.2
585.15 K, Fluid (supercritical or subcritical phases), Mass density=476.25 kg/m3, isochoric heat capacity | 64.62 ± 2.6
585.16 K, Fluid (supercritical or subcritical phases), Mass density=456.58 kg/m3, isochoric heat capacity | 80.57 ± 3.2
585.31 K, Fluid (supercritical or subcritical phases), Mass density=120.03 kg/m3, isochoric heat capacity | 115.43 ± 5.2
585.31 K, Liquid, Isochoric heat capacity | 115.43 ± 4.6
585.34 K, Fluid (supercritical or subcritical phases), Mass density=120.03 kg/m3, isochoric heat capacity | 110.25 ± 5
585.4 K, Fluid (supercritical or subcritical phases), Mass density=120.03 kg/m3, isochoric heat capacity | 96.96 ± 4.1
585.42 K, Fluid (supercritical or subcritical phases), Mass density=456.58 kg/m3, isochoric heat capacity | 79.9 ± 3.2
585.48 K, Fluid (supercritical or subcritical phases), Mass density=120.03 kg/m3, isochoric heat capacity | 94.87 ± 4.1
585.5 K, Fluid (supercritical or subcritical phases), Mass density=456.58 kg/m3, isochoric heat capacity | 80.27 ± 3.2
585.62 K, Fluid (supercritical or subcritical phases), Mass density=120.03 kg/m3, isochoric heat capacity | 76.93 ± 3.4
585.68 K, Fluid (supercritical or subcritical phases), Mass density=456.58 kg/m3, isochoric heat capacity | 78.28 ± 3.1
585.94 K, Fluid (supercritical or subcritical phases), Mass density=120.03 kg/m3, isochoric heat capacity | 64.29 ± 2.8
586.02 K, Fluid (supercritical or subcritical phases), Mass density=120.03 kg/m3, isochoric heat capacity | 59.53 ± 2.5
586.11 K, Fluid (supercritical or subcritical phases), Mass density=120.03 kg/m3, isochoric heat capacity | 58.12 ± 2.4
586.2 K, Fluid (supercritical or subcritical phases), Mass density=120.03 kg/m3, isochoric heat capacity | 53.99 ± 2.3
586.28 K, Fluid (supercritical or subcritical phases), Mass density=120.03 kg/m3, isochoric heat capacity | 54.52 ± 2.3
586.37 K, Fluid (supercritical or subcritical phases), Mass density=120.03 kg/m3, isochoric heat capacity | 51.14 ± 2.1
587.06 K, Fluid (supercritical or subcritical phases), Mass density=456.58 kg/m3, isochoric heat capacity | 75.4 ± 3
587.24 K, Fluid (supercritical or subcritical phases), Mass density=456.58 kg/m3, isochoric heat capacity | 75.97 ± 3
587.41 K, Fluid (supercritical or subcritical phases), Mass density=456.58 kg/m3, isochoric heat capacity | 75.31 ± 3
587.5 K, Fluid (supercritical or subcritical phases), Mass density=456.58 kg/m3, isochoric heat capacity | 74.46 ± 3
587.58 K, Fluid (supercritical or subcritical phases), Mass density=456.58 kg/m3, isochoric heat capacity | 76.18 ± 3.1
594.14 K, Fluid (supercritical or subcritical phases), Mass density=147.43 kg/m3, isochoric heat capacity | 103.92 ± 4.4
594.14 K, Liquid, Isochoric heat capacity | 103.92 ± 4.2
594.15 K, Fluid (supercritical or subcritical phases), Mass density=147.43 kg/m3, isochoric heat capacity | 93.04 ± 3.7
594.23 K, Fluid (supercritical or subcritical phases), Mass density=147.43 kg/m3, isochoric heat capacity | 91.23 ± 3.9
594.32 K, Fluid (supercritical or subcritical phases), Mass density=147.43 kg/m3, isochoric heat capacity | 82.61 ± 3.6
594.49 K, Fluid (supercritical or subcritical phases), Mass density=147.43 kg/m3, isochoric heat capacity | 80.43 ± 3.5
594.58 K, Fluid (supercritical or subcritical phases), Mass density=120.03 kg/m3, isochoric heat capacity | 43.51 ± 1.8
594.58 K, Fluid (supercritical or subcritical phases), Mass density=147.43 kg/m3, isochoric heat capacity | 67.31 ± 2.9
594.66 K, Fluid (supercritical or subcritical phases), Mass density=120.03 kg/m3, isochoric heat capacity | 46.88 ± 1.9
594.66 K, Fluid (supercritical or subcritical phases), Mass density=147.43 kg/m3, isochoric heat capacity | 62.24 ± 2.6
594.75 K, Fluid (supercritical or subcritical phases), Mass density=120.03 kg/m3, isochoric heat capacity | 46.35 ± 1.9
594.75 K, Fluid (supercritical or subcritical phases), Mass density=147.43 kg/m3, isochoric heat capacity | 60.82 ± 2.5
594.78 K, Fluid (supercritical or subcritical phases), Mass density=120.03 kg/m3, isochoric heat capacity | 43.67 ± 1.8
594.84 K, Fluid (supercritical or subcritical phases), Mass density=147.43 kg/m3, isochoric heat capacity | 66.35 ± 2.8
594.92 K, Fluid (supercritical or subcritical phases), Mass density=147.43 kg/m3, isochoric heat capacity | 53.4 ± 2.2
595.01 K, Fluid (supercritical or subcritical phases), Mass density=120.03 kg/m3, isochoric heat capacity | 47.77 ± 1.9
595.09 K, Fluid (supercritical or subcritical phases), Mass density=147.43 kg/m3, isochoric heat capacity | 56.72 ± 2.3
595.1 K, Fluid (supercritical or subcritical phases), Mass density=456.58 kg/m3, isochoric heat capacity | 70.87 ± 2.8
595.16 K, Fluid (supercritical or subcritical phases), Mass density=376.89 kg/m3, isochoric heat capacity | 99.09 ± 4
595.16 K, Liquid, Isochoric heat capacity | 99.09 ± 4
595.18 K, Fluid (supercritical or subcritical phases), Mass density=147.43 kg/m3, isochoric heat capacity | 52.64 ± 2.1
595.18 K, Fluid (supercritical or subcritical phases), Mass density=376.89 kg/m3, isochoric heat capacity | 96.84 ± 3.9
595.18 K, Fluid (supercritical or subcritical phases), Mass density=456.58 kg/m3, isochoric heat capacity | 70.11 ± 2.8
595.27 K, Fluid (supercritical or subcritical phases), Mass density=376.89 kg/m3, isochoric heat capacity | 95.54 ± 3.8
595.35 K, Fluid (supercritical or subcritical phases), Mass density=456.58 kg/m3, isochoric heat capacity | 71.12 ± 2.8
595.44 K, Fluid (supercritical or subcritical phases), Mass density=147.43 kg/m3, isochoric heat capacity | 50.03 ± 2
595.44 K, Fluid (supercritical or subcritical phases), Mass density=376.89 kg/m3, isochoric heat capacity | 96.07 ± 3.8
595.44 K, Fluid (supercritical or subcritical phases), Mass density=456.58 kg/m3, isochoric heat capacity | 68.76 ± 2.8
595.53 K, Fluid (supercritical or subcritical phases), Mass density=376.89 kg/m3, isochoric heat capacity | 92.7 ± 3.7
595.53 K, Fluid (supercritical or subcritical phases), Mass density=456.58 kg/m3, isochoric heat capacity | 71.34 ± 2.9
595.61 K, Fluid (supercritical or subcritical phases), Mass density=376.89 kg/m3, isochoric heat capacity | 94.85 ± 3.8
595.61 K, Fluid (supercritical or subcritical phases), Mass density=456.58 kg/m3, isochoric heat capacity | 68.53 ± 2.7
595.7 K, Fluid (supercritical or subcritical phases), Mass density=147.43 kg/m3, isochoric heat capacity | 52.76 ± 2.1
595.7 K, Fluid (supercritical or subcritical phases), Mass density=456.58 kg/m3, isochoric heat capacity | 70.96 ± 2.8
595.78 K, Fluid (supercritical or subcritical phases), Mass density=376.89 kg/m3, isochoric heat capacity | 89.45 ± 3.6
595.87 K, Fluid (supercritical or subcritical phases), Mass density=376.89 kg/m3, isochoric heat capacity | 91.17 ± 3.6
595.96 K, Fluid (supercritical or subcritical phases), Mass density=376.89 kg/m3, isochoric heat capacity | 88.44 ± 3.5
597.16 K, Fluid (supercritical or subcritical phases), Mass density=376.89 kg/m3, isochoric heat capacity | 87.9 ± 3.5
597.35 K, Fluid (supercritical or subcritical phases), Mass density=160.07 kg/m3, isochoric heat capacity | 101.99 ± 4.1
597.36 K, Liquid, Isochoric heat capacity | 101.99 ± 4.1
597.38 K, Fluid (supercritical or subcritical phases), Mass density=160.07 kg/m3, isochoric heat capacity | 81.69 ± 3.3
597.43 K, Fluid (supercritical or subcritical phases), Mass density=160.07 kg/m3, isochoric heat capacity | 69.47 ± 2.8
597.5 K, Fluid (supercritical or subcritical phases), Mass density=376.89 kg/m3, isochoric heat capacity | 85.95 ± 3.4
597.53 K, Fluid (supercritical or subcritical phases), Mass density=160.07 kg/m3, isochoric heat capacity | 62.62 ± 2.5
597.56 K, Fluid (supercritical or subcritical phases), Mass density=342.18 kg/m3, isochoric heat capacity | 110.99 ± 4.4
597.56 K, Liquid, Isochoric heat capacity | 110.99 ± 4.4
